Patent publication US20080026952A1, “HCV replicon shuttle vectors” (priority 2005, published 2008)

How the values were obtained:
[1] = test system: HCV replicons with NS5B from genotype-1a and genotype-1b clinical isolates in Huh-7 cells; assay: Sensitivity of treatment naive NS5B clinical isolates versus reference replicons (FIG. 3); assay type: cell-based, HCV genotype-1a and genotype-1b; conditions: pools of 96 clones per isolate, reference replicons Con1 (genotype-1b) and H77 (genotype-1a)
Description: Four million cured Huh7 cells were transfected with 5 μg of in vitro transcribed RNA using electroporation. Cells were then resuspended in 7.2 ml of DMEM containing 5% FBS and plated in 96-well plate at 50000 cells/well (in 90 μl final volume). Inhibitors were added 24 hours post-transfection in 3 fold dilutions at a final DMSO concentration of 1% and firefly luciferase reporter signal was read 72 hours after addition of inhibitors using the Luciferase Assay system (Promega, cat #E1501). The IC50 values were assessed as the inhibitor concentration at which a 50% reduction in the level of firefly luciferase reporter was observed as compared to the level of firefly luciferase signal without the addition of compounds. Results of studies testing the inhibitory effects of the compound, 2′-C-Methyl-Cytidine, on replication of pSS-1—1a_NS5B—5′AsiSI—3′RsrII and replicons with patient-derived NS5B sequences are shown in Table 2.
In order to test the sensitivity of HCV polymerase inhibitors across genetically diverse and treatment naive clinical isolates, the NS5B coding region from the isolates was amplified and cloned into the replicon shuttle replicons (clinical isolates from genotype-1a were cloned into pSS-1—1a—5′AsiSI_lacZAmC—3′RsrII and genotype-1b clinical isolates were cloned into pSC—1b—5′AsiSI_lacZAmC—3′RsrII). 96 molecular clones were pooled for each clinical isolate. […]

[2] = test system: HCV replicon pSS-1_1a_NS5B_5′AsiSI_3′RsrII in Huh7 cells; assay: Transient replicon phenotypic assay (firefly luciferase), reference shuttle vector; assay type: cell-based, HCV genotype 1a (H77); conditions: Hepatitis C virus, Huh-7, 72 h, read-out: 2′-C-Me-C IC50
Description: (§1) Five micrograms of DNA plasmids were linearized by Sca I restriction enzyme (Roche). After overnight digestion at 37° C., the DNA was purified using Qiagen PCR purification kit. One microgram of linearized DNA was used for the in vitro transcription using T7 Mega script kit following manufacturer's protocol (Ambion). After 2 hours of incubation at 37° C., DNase treatment was performed for 30 minutes at 37° C. to remove the DNA template. In vitro transcribed RNA was then purified using NucAway Spin Column following manufacturer's protocol (Ambion).
(§2) Cured hepatoma cell line Huh7 were cultured at 37° C. in a humidified atmosphere with 5% CO2 in Dulbecco's Modified Eagle Medium (DMEM) supplemented with Glutamax™ and […] sodium pyruvate (Cat #10569-010). The medium was further supplemented with 10% (v/v) FBS (Cat #16000-036) and 1% (v/v) penicillin/streptomycin (Cat #15140-122). All reagents were from Invitrogen/Gibco.
(§3) Four million cured Huh7 cells were transfected with 5 μg of in vitro transcribed RNA using electroporation. […] Inhibitors were added 24 hours post-transfection in 3 fold dilutions at a final DMSO concentration of 1% and firefly luciferase reporter signal was read 72 hours after addition of inhibitors using the Luciferase Assay system (Promega, cat #E1501). […]

[3] = test system: HCV replicon containing NS5B from Clinical Isolate Pt 5 in Huh7 cells; assay: Transient replicon phenotypic assay (firefly luciferase), patient-derived NS5B Pt 5; assay type: cell-based, HCV genotype 1a; conditions: Hepatitis C virus, genotype 1a, Huh-7, 72 h, read-out: 2′-C-Me-C IC50
Description: as §1, §2, §3

[4] = test system: HCV replicon containing NS5B from Clinical Isolate Pt 6 in Huh7 cells; assay: Transient replicon phenotypic assay (firefly luciferase), patient-derived NS5B Pt 6; assay type: cell-based, HCV genotype 1a; conditions: Hepatitis C virus, genotype 1a, Huh-7, 72 h, read-out: 2′-C-Me-C IC50
Description: as §1, §2, §3

[5] = test system: HCV replicon containing NS5B from Clinical Isolate Pt 7 in Huh7 cells; assay: Transient replicon phenotypic assay (firefly luciferase), patient-derived NS5B Pt 7; assay type: cell-based, HCV genotype 1a; conditions: Hepatitis C virus, genotype 1a, Huh-7, 72 h, read-out: 2′-C-Me-C IC50
Description: as §1, §2, §3

[6] = test system: HCV replicon containing NS5B from Clinical Isolate Pt 8 in Huh7 cells; assay: Transient replicon phenotypic assay (firefly luciferase), patient-derived NS5B Pt 8; assay type: cell-based, HCV genotype 1a; conditions: Hepatitis C virus, genotype 1a, Huh-7, 72 h, read-out: 2′-C-Me-C IC50
Description: as §1, §2, §3

[7] = test system: HCV replicon containing NS5B from Clinical Isolate Pt 9 in Huh7 cells; assay: Transient replicon phenotypic assay (firefly luciferase), patient-derived NS5B Pt 9; assay type: cell-based, HCV genotype 1a; conditions: Hepatitis C virus, genotype 1a, Huh-7, 72 h, read-out: 2′-C-Me-C IC50
Description: as §1, §2, §3

C1=NNSc2ccccc21 [benzothiadiazine]
potency across the NS5B clinical isolates as compared to the reference replicons [1]: variable potencies

C[C@@]1(O)[C@H](O)[C@@H](CO)O[C@H]1n1ccc(N)nc1=O [2′-C-Me-C, 2′-C-Methyl-Cytidine]
IC50 [2]: 400 ± 30 nM
IC50 [3]: 300 ± 50 nM
IC50 [4]: 300 ± 40 nM
IC50 [5]: 300 ± 50 nM
IC50 [6]: 400 ± 70 nM
IC50 [7]: 400 ± 60 nM

O=C(O)c1cccs1 [thiophene-2-carboxylic acid]
potency across the NS5B clinical isolates as compared to the reference replicons [1]: variable potencies
